Where two headings read alike, the source gives them in different places. No end group written: not given here.
Assays:
[1] = test system: S. aureus (Sau); format: cell-based
[2] = test system: planktonic methicillin resistant S. aureus; assay: microbe, parasite or virus in culture; format: cell-based, Staphylococcus aureus
[3] = test system: PBMCs; assay: Cytotoxicity towards PBMCs, lactate dehydrogenase (LDH) release assay (Tables 6, 7); details: SPOT synthesized peptide ~25 μM, PBMCs from 3 human donors; Table 6
[4] = test system: E. coli (Ec); format: cell-based
[5] = test system: S. aureus (Sau); format: cell-based; remark: listed apart in the source
Experimental: (§1) The same strains as in Table 18 were assessed for Minimal Biofilm Inhibitory Concentrations (MBIC) (Table 19). Italics=excellent activity (less than or equal to 4 μg/ml). ND=Not determined. Peptides 3013, 3015 and 3016 inhibited biofilm growth in the largest number of bacterial strains (5, 5 and 6 out of 13 strains, respectively).
(§2) In addition, several peptides expressed preferential activity vs. biofilms (MBIC) cf. planktonic cells (MIC) (Table 20).

[6] = test system: E. coli (Ec); format: cell-based; remark: listed apart in the source
Experimental: as §1, §2

[7] = planktonic methicillin resistant
[8] = planktonic methicillin resistant S. aureus, broth microdilution in Mueller Hinton Broth (MHB), mean of three biological replicates
[9] = planktonic methicillin resistant S. aureus, broth microdilution in Tryptic Soy Broth (TSB) supplemented with 1% glucose, mean of three biological replicates

| Substance | MIC S. aureus ([1]; Sau) | MIC (μM) MHB [2, 7] | MIC (μM) TSB with 1% Glucose [2, 7] | % Toxicity (LDH Release) [3] | MIC E. coli ([4]; Ec) | MBIC S. aureus ([5]; Sau) | MBIC E. coli ([6]; Ec) | MIC S. aureus ([1]; planktonic cells, Table 20) | MIC (μM) MHB [2, 8] | MIC (μM) TSB with 1% Glucose [2, 9] | MIC E. coli ([4]; planktonic cells, Table 20) | MBIC S. aureus ([5]; biofilms, Table 20) | MBIC E. coli ([6]; biofilms, Table 20) |
| --- | --- | --- | --- | --- | --- | --- | --- | --- | --- | --- | --- | --- | --- |
| WQGWAKIWVVRI-NH2 [Peptide 3019, WQGWAKIWVVRI] | 4 µg/mL | 8 µM | 32 µM | −3.1% | 4 µg/mL | 2 µg/mL | 2 µg/mL |  |  |  |  |  |  |
| VLKIKVKIWVVK-NH2 [Peptide 3007, VLKIKVKIWVVK] |  |  |  | 2% |  |  |  | 16 µg/mL | 16 µM | >64 µM | 8 µg/mL | 2 µg/mL | 4 µg/mL |
| ILVRWIRWRIQW-NH2 [Peptide 3002, ILVRWIRWRIQW] | 8 µg/mL | 2 µM | 4 µM | −3.7% | 8 µg/mL | 4 µg/mL | 4 µg/mL |  |  |  |  |  |  |
| WKKVQWLKRLLL-NH2 [Peptide 3003, WKKVQWLKRLLL] | 16 µg/mL | 4 µM | 16 µM | 22.5% | 4 µg/mL | 1 µg/mL | 2 µg/mL |  |  |  |  |  |  |
| IWLRLKVVLKRK-NH2 [Peptide 3006, IWLRLKVVLKRK] |  |  |  | 2.4% |  |  |  | 8 µg/mL | 4 µM | 32 µM | 2 µg/mL | 1 µg/mL | 1 µg/mL |
| WVGVIIKWGLKL-NH2 [Peptide 3018, WVGVIIKWGLKL] | 2 µg/mL | 2 µM | 4 µM | −0.3% | 4 µg/mL | 1 µg/mL | 2 µg/mL |  |  |  |  |  |  |
| KIQRRAWKQWRK-NH2 [Peptide 3014, KIQRRAWKQWRK] | >64 µg/mL | >64 µM | >64 µM | −3.7% | 64 µg/mL | 64 µg/mL | 64 µg/mL |  |  |  |  |  |  |
| RRIIKILLWKLR-NH2 [Peptide 3021, RRIIKILLWKLR] | 8 µg/mL | 4 µM | 32 µM | 13.1% | <1 µg/mL | 1 µg/mL | 2 µg/mL |  |  |  |  |  |  |
| KKWQLLIKWKLR-NH2 [Peptide 3008, KKWQLLIKWKLR] | 8 µg/mL | 2 µM | 4 µM | 18.8% | 8 µg/mL | 2 µg/mL | 4 µg/mL |  |  |  |  |  |  |
| RVKAIKWRKIVV-NH2 [Peptide 3012, RVKAIKWRKIVV] | >64 µg/mL | >64 µM | >64 µM | 2.8% | 64 µg/mL | 8 µg/mL | 32 µg/mL |  |  |  |  |  |  |
| RRQWRGWVRIWL-NH2 [Peptide 3005, RRQWRGWVRIWL] | 8 µg/mL | 4 µM | 64 µM | −4.2% | 4 µg/mL | 1 µg/mL | 2 µg/mL |  |  |  |  |  |  |
| VIKWLLKILRAI-NH2 [Peptide 3001, VIKWLLKILRAI] | 2 µg/mL | 1 µM | 2 µM | 64.4% | 4 µg/mL | <1 µg/mL | 2 µg/mL |  |  |  |  |  |  |
| VLQIKKVLRLLL-NH2 [Peptide 3011, VLQIKKVLRLLL] |  |  |  | 15.7% |  |  |  | 64 µg/mL | 8 µM | 16 µM | 8 µg/mL | 2 µg/mL | 4 µg/mL |
| IQRWWKVWLKVI-NH2 [Peptide 3004, IQRWWKVWLKVI] | 8 µg/mL | 4 µM | 16 µM | 5.1% | 4 µg/mL | 1 µg/mL | 2 µg/mL |  |  |  |  |  |  |
| IAWQLLWGWRVR-NH2 [Peptide 3022, IAWQLLWGWRVR] | 8 µg/mL | 4 µM | 8 µM | −4.8% | 8 µg/mL | 4 µg/mL | 4 µg/mL |  |  |  |  |  |  |

— US20210138025A1, “CATIONIC PEPTIDES WITH IMMUNOMODULATORY AND/OR ANTI-BIOFILM ACTIVITIES” (priority 2018, published 2021)
